Columns and labels:
[1] = biological target: COX-1 (Homo sapiens, UniProt P23219); experiment: COX-1 enzyme activity in human whole blood (A23187 stimulated, thromboxane B2 EIA); format: cell-based; design: Human blood (≈50 mL) from male or female donors who had not received any aspirin or NSAIDs for 14 days; endogenous in cells; host or cells: human whole blood from donors; conditions: test compound at 100 μM
Experimental: (§1) The assay for COX-1 and COX-2 enzyme activity, in the human whole blood was performed as described in Brideau et al., Inflamm Res., 45: 68-74 (1996)). Human blood (≈50 mL) from male or female donors who had not received any aspirin or NSAIDs for 14 days was collected at two local area blood donor centers and placed in polypropylene syringes containing sodium heparin (20 units per mL blood, final concentration). The blood was transported to the laboratory on ice packs and used within 1.5 hours of collection. Upon receipt in the laboratory, the blood was allowed to come to room temperature for 15 minutes prior to distribution in 1 mL aliquots per well of 24 well tissue culture plates. The plates were then placed on a gently rotating platform shaker in a 5% CO2 incubator at 37° C. for 15 minutes. Test compounds were dissolved in DMSO, at 1000 fold the final desired concentration, and further diluted, as indicated, in DMSO. One μL of each dilution of the test compound was added per well, in duplicate wells; wells not receiving test compound (e.g., basal, background or control wells) received 1 μL DMSO.
(§2) To induce COX-2, lipopolysaccharide (LPS) from E. coli (LPS, serotype 026:B6 or serotype 0127:B8, Sigma Chemical Co., St. Louis, Mo., Catalogue No. L3755 or L3129, respectively) was added at 10 μg/mL (2 μL of 5 mg/mL LPS in DMSO) to appropriate wells 15 minutes after the addition of the test compound. (Basal or background wells not incubated with LPS received 2 μL of DMSO.) For the stimulation of COX-1, the calcium ionophore, A23187 (free acid from Sigma Chemical Co., St. Louis, Mo., Catalogue No. C7522) was added at 25 μM (1 μL of 25 mM stock in DMSO) to separate wells 4.5 hours after the addition of the test compound. (Again, basal, background or control wells not stimulated with A23187 received 1 μL of DMSO.) At 5 hours after the addition of the test compound, all incubations were terminated by placement on ice and the addition of 2 mM EGTA (100 μL of 20 mM EGTA, tetrasodium, in PBS (phosphate buffered saline) without Ca^++ and Mg^++, pH 7.2)). The resulting solutions, were transferred by polyethylene transfer pipettes to 15 mL polypropylene centrifuge tubes and centrifuged at 1200 g for 10 minutes at 4° C. One hundred μL of plasma was removed from each blood sample and added to 1 mL of methanol in new 15 mL polypropylene centrifuge tubes, vortexed, and stored overnight at −20° C. The next day, the samples were centrifuged at 2000 g for 10 minutes at 4° C. and the supernatants transferred to glass tubes and evaporated to dryness. The samples were assayed for thromboxane B2 using EIA kits supplied by Cayman Chemical Co. (Ann Arbor, Mich., Catalogue No. 519031) in duplicate wells after reconstitution with EIA Buffer and appropriate dilution (2000 fold for COX-1 and 500 fold for Cox-2 samples).

[2] = biological target: T1, COX-2 (Homo sapiens, UniProt P35354); experiment: COX-2 enzyme activity in human whole blood (LPS induced, thromboxane B2 EIA); format: cell-based; design: Human blood (≈50 mL) from male or female donors who had not received any aspirin or NSAIDs for 14 days; endogenous in cells; host or cells: human whole blood from donors, LPS-induced; conditions: test compound at 10 μM
T1 sequence (P35354 18-604): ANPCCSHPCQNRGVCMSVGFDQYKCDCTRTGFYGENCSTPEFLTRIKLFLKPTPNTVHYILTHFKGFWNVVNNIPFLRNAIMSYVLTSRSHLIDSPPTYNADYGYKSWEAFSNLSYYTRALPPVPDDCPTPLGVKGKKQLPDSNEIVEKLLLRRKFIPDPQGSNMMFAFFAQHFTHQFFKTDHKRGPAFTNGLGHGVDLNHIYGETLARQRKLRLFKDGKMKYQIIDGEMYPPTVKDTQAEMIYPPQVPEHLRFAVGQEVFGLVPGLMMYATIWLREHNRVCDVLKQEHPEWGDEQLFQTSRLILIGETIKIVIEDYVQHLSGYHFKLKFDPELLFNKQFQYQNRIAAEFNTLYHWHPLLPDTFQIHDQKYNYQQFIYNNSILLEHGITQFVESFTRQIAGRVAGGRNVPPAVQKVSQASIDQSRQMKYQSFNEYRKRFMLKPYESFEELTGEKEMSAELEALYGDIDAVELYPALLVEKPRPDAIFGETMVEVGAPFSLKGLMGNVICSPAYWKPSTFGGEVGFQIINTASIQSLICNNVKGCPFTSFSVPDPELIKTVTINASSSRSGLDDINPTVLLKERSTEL
Experimental: as §1, with “Human” for “The assay for COX-1 and COX-2 enzyme activity, in the human whole blood was performed as described in Brideau et al., Inflamm Res., 45: 68-74 (1996)). Human”
as §2, with “(Basal or background wells not incubated with LPS received 2 μL of DMSO.) For the stimulation of COX-1, the calcium ionophore, A23187 (free acid from Sigma Chemical Co., St. Louis, Mo., Catalogue No. C7522) was added at 25 μM (1 μL of 25 mM stock in DMSO) to separate wells 4.5 hours after the addition of the test compound.” left out, “dryness.” for “dryness. The samples were assayed for thromboxane B2 using EIA kits supplied by Cayman Chemical Co. (Ann Arbor, Mich., Catalogue No. 519031) in duplicate wells after reconstitution with EIA Buffer and appropriate dilution (2000 fold for COX-1 and 500 fold for Cox-2 samples).”

Sequence of COX-1 (P23219 24-599): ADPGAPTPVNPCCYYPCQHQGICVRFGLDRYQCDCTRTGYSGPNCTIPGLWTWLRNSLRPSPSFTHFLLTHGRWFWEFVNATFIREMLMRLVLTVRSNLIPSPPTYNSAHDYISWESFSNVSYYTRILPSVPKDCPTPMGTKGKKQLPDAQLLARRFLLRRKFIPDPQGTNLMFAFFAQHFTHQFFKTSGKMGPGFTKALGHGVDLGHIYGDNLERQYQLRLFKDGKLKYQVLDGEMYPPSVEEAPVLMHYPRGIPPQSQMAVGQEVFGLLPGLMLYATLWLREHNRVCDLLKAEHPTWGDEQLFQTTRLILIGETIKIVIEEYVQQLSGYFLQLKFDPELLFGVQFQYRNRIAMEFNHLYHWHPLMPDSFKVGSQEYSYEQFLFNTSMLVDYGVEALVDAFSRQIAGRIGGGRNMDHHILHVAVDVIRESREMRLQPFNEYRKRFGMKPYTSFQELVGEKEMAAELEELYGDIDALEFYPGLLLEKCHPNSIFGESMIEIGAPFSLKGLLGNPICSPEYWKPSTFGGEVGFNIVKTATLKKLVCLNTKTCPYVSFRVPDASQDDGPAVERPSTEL

Compound	COX-1 Inhibition (% at 100 μM) [1] [%]	COX-2 Inhibition (% at 10 μM) [2] [%]
CCOC(=O)C1(C(=O)OCC)Oc2cc(Cc3cc(F)cc(F)c3)c(-c3ccc(S(C)(=O)=O)cc3)cc2O1 [Example 17f, 1,2-(Bis(ethoxycarbonyl))methylenedioxy-5-(1-(3′,5′-difluorophenyl)methyl)--4-(4-methylsulfonylphenyl)benzene]	10	25
Ethyl 7-((3,5-difluorophenyl)methyl)-6-(4-(methylsulfonyl)phenyl)-2H, 3H-benzo(e)1,4-dioxin-2-carboxylate and ethyl 6-((3, 5-difluorophenyl)methyl)-7-(4-(methylsulfonyl)phenyl)-2H, 3H-benzo(e)1,4-dioxin-2-carboxylate [Example 18a]	90	65
CS(=O)(=O)c1ccc(-c2cc3c(cc2CC2CCCCCC2)OCO3)cc1 [Example 11c, 4-(6-(Cycloheptylmethyl)(2H-benzo(3,4-d)1,3-dioxolan-5-yl))-1-(methylsulfonyl)benzene]	40	80
CS(=O)(=O)c1ccc(-c2cc3c(cc2Cc2cc(F)cc(F)c2)OC(C(=O)NCCO)CO3)cc1 (centres unmarked) [Example 18b, (7-((3,5-Difluorophenyl)methyl)-6-(4-(methylsulfonyl)phenyl)(2H, 3H-benzo(e)1,4-dioxin-2-yl))-N-(2-hydroxyethyl)carboxamido]	50	25
CS(=O)(=O)c1ccc(-c2cc3c(cc2Cc2cc(F)cc(F)c2)OC(C(=O)NCCO[N+](=O)[O-])CO3)cc1 (centres unmarked) [Example 18d, (7-((3,5-Difluorophenyl)methyl)-6-(4-(methylsulfonyl)phenyl)(2H, 3H-benzo(e)1,4-dioxin-2-yl))-N-(2-(nitrooxy)ethyl)carboxamido]	60	40
CCOC(=O)/C(C)=C/c1cc2c(cc1-c1ccc(S(C)(=O)=O)cc1)OCO2 [Example 7d, Ethyl (2E)-2-methyl-3-(6-(4-(methylsulfonyl)phenyl)(2H-benzo(d)1,3-dioxolan-5-yl))prop-2-enoate]	5	35
CS(=O)(=O)c1ccc(-c2cc(O)c(O)cc2C(=O)c2cc(F)cc(F)c2)cc1 [Example 17h, 4-(1-(3′,5′-Difluorophenyl)-1-oxomethyl)-1,2-hydroxy-5-(4-methylsulfonylphenyl)benzene]	65	55
CS(=O)(=O)c1ccc(-c2cc3c(cc2C(=O)c2cccc(CO[N+](=O)[O-])c2)OCO3)cc1 [Example 12d, 6-(4-(methylsulfonyl)phenyl)(2H-benzo(d)1,3-dioxolan-5-yl)3-((nitrooxy)methyl)phenylketone]	20	20
CS(=O)(=O)c1ccc(-c2cc3c(cc2C(=O)c2cc(F)cc(F)c2)OCO3)cc1 [Example 16, 4-(1-(3′,5′-Difluorophenyl)-1-oxomethyl)-1,2-methylenedioxy-5-(4-methylsulfonylphenyl)benzene]	50	100
COc1cc(Cc2cc(F)cc(F)c2)c(-c2ccc(S(C)(=O)=O)cc2)cc1OC [Example 17d, 5-(1-(3′,5′-Difluorophenyl)methyl)-1,2-dimethoxy-4-(4-methylsulfonylphenyl)benzene]	25	20
CS(=O)(=O)c1ccc(-c2cc3c(cc2Cc2ccccc2F)OCO3)cc1 [Example 4c, 1-(6-((2-Fluorophenyl)methyl)(2H-benzo(3,4-d)1,3-dioxolan-5-yl))-4-(methylsulfonyl)benzene]	70	60
O=[N+]([O-])OCc1ccc(-c2cc3c(cc2Cc2cc(F)cc(F)c2)OCO3)cc1 [Example 23d, ((4-(6-((3,5-Difluorophenyl)methyl)(2H-benzo(3,4-d)1,3-dioxolan-5-yl))phenyl)methyl)nitrooxy]	65	30
C/C(=C\c1cc2c(cc1-c1ccc(S(C)(=O)=O)cc1)OCO2)CO [Example 7e, 1-(6-((1E)-3-Hydroxy-2-methylprop-1-enyl)(2H-benzo(3,4-d)1,3-dioxolan-5-yl))-4-(methylsulfonyl)benzene]	20	10
Cc1cccc(C(=O)c2cc3c(cc2-c2ccc(S(C)(=O)=O)cc2)OCO3)c1 [Example 12c, 3-Methylphenyl 6-(4-(methylsulfonyl)phenyl)(2H-benzo(d)1,3-dioxolan-5-yl)ketone]	90	90
CS(=O)(=O)c1ccc(-c2cc3c(cc2Cc2cccc(F)c2)OCO3)cc1 [Example 5c, 1-(6-((3-Fluorophenyl)methyl)(2H-benzo(3,4-d)1,3-dioxolan-5-yl))-4-(methylsulfonyl)benzene]	55	90
COc1cccc(C(=O)c2cc3c(cc2-c2ccc(S(C)(=O)=O)cc2)OCO3)c1 [Example 13c, 3-Methoxyphenyl-6-(4-(methylsulfonyl)phenyl)(2H-benzo(d)1,3-dioxolan-5-yl) ketone]	90	75
